Where two headings read alike, the source gives them in different places.
Assays:
[1] = In vitro human microsomal stability assay; type: in vitro ADME; details: human, microsomes, 0.5 h, 0.5 μM, pH 7.4
Protocol: (§1) Test compounds were evaluated for metabolic stability in an in vitro rat microsomal stability assay using rat liver microsomes (Sprague-Dawley, from BD Biosciences) and/or an in vitro human microsomal stability assay using human liver microsomes (Xenotech). […] Incubations were carried out at 37° C. with a final incubation volume of 135 μL. […] A 1.5 μL aliquot of reduced nicotine adenine disphosphonucleotide (NADPH) (Chem-Impex Int'L Inc., Lot 12532024) was also added to the time-zero plates.

human TRPV3 = target: T1, human TRPV3 (Homo sapiens, UniProt Q8NET8); experiment: In vitro antagonism of recombinant human TRPV3 activation (FLIPR Tetra calcium assay); type: cell-based; details: HEK293 cells stably expressing human TRPV3, agonist 2-APB at 80 μM
T1 construct: expressed in transfected cells
T1 sequence (Q8NET8 1-790): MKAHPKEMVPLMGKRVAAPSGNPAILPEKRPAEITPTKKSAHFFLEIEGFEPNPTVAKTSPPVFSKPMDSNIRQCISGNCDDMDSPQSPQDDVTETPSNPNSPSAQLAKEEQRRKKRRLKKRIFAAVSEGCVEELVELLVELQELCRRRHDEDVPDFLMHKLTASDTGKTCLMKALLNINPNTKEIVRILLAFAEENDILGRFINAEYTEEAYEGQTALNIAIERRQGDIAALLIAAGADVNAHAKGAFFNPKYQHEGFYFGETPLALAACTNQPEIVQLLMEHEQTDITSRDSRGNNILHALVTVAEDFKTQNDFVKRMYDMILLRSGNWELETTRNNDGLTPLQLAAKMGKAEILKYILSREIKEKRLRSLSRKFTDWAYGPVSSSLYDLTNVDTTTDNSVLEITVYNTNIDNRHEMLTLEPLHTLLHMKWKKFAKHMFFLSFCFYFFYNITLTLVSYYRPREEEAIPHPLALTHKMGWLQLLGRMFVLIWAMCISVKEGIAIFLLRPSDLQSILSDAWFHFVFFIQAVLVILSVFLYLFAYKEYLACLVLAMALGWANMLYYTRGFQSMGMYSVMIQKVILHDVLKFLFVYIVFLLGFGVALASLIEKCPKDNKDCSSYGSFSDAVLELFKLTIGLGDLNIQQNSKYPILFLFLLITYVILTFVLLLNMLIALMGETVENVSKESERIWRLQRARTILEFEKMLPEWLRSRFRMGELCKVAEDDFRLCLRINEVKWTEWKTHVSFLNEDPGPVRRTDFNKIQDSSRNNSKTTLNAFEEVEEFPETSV
In short: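 Calcium flux read over a 10 min run: compound added at 10 s to Calcium-4-loaded human TRPV3-HEK293 cells, agonist 2-APB (80 μM, its EC80) after 3 min. IC50 derived from peak-minus-baseline signal as percentage of uninhibited 2-APB response, typically averaged over at least two runs.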

[2] = In vitro rat microsomal stability assay; type: in vitro ADME, rat (Sprague-Dawley); details: Sprague-Dawley, rat, microsomes, 0.5 h, 0.5 μM, pH 7.4
Protocol: as §1

[3] = actual measured value shown parenthetically, in most cases average of at least two runs, read-out: IC50
[4] = reported range, read-out: IC50 (range class)

Row | SMILES | HUMAN MICROSOMAL STABILITY (% REMAINING AFTER 30 MINUTES) [1] [%] | IC50 (human TRPV3; [3]) [µM] | RAT MICROSOMAL STABILITY (% REMAINING AFTER 30 MINUTES) [2] [%] | IC50 (human TRPV3; [4]) [µM]
1 | O=C1CC(c2ccc(C(F)(F)F)cc2)([C@H](O)c2ccccn2)C1 (single isomer, unassigned) [Example 164] | 71 | 2.61 | 81 | 
2 | O=C1CC(c2ccc(C(F)(F)F)cc2)([C@@H](O)c2ccccn2)C1 (single isomer, unassigned) [Example 165] | 83 | 16.6 | 77 | 
3 | OC(C1CCCc2cccnc21)C1(c2ccc(F)c(F)c2)CCC1 (single isomer, unassigned) [Example 169, (anti)-[1-(3,4-difluorophenyl)cyclobutyl][5,6,7,8-tetrahydroquinolin-8-yl]-methanol] | <0.01 | 5.82 | <0.01 | 
4 | OC(C1CCCc2cccnc21)C1(c2ccc(F)c(F)c2)CCC1 (single isomer, unassigned) [Example 170, (syn)-[1-(3,4-difluorophenyl)cyclobutyl][5,6,7,8-tetrahydroquinolin-8-yl]-methanol] | <0.01 | > 20 | <0.01 | > 20
5 | OC(C1CCCc2cccnc21)C1(c2ccc(OC(F)(F)F)cc2)CCC1 (single isomer, unassigned) [Example 177, (anti)-5,6,7,8-tetrahydroquinolin-8-yl{1-[4-(trifluoromethoxy)phenyl]-cyclobutyl}methanol] | 0.12 | 3.38 | <0.01 | 
6 | OC(C1CCCc2cccnc21)C1(c2ccc(OC(F)(F)F)cc2)CCC1 (single isomer, unassigned) [Example 178, (syn)-5,6,7,8-tetrahydroquinolin-8-yl{1-[4-(trifluoromethoxy)phenyl]-cyclobutyl}methanol] | 9.2 | > 20 | <0.01 | > 20
7 | OC(C1CCCc2cccnc21)C1(c2cccc(C(F)(F)F)c2)CCC1 (single isomer, unassigned) [Example 179, (anti)-5,6,7,8-tetrahydroquinolin-8-yl{1-[3-(trifluoromethyl)phenyl]-cyclobutyl}methanol] | <0.01 | 2.95 | <0.01 | 
8 | OC(C1CCCc2cccnc21)C1(c2cccc(C(F)(F)F)c2)CCC1 (single isomer, unassigned) [Example 180, (syn)-5,6,7,8-tetrahydroquinolin-8-yl{1-[3-(trifluoromethyl)phenyl]-cyclobutyl}methanol] | <0.01 | > 20 | <0.01 | > 20
9 | OC(C1CCCc2cccnc21)C1(c2ccc(Cl)c(Cl)c2)CCC1 (single isomer, unassigned) [Example 181, (anti)-[1-(3,4-dichlorophenyl)cyclobutyl][5,6,7,8-tetrahydroquinolin-8-yl]-methanol] | <0.01 | 1.98 | <0.01 | 
10 | OC(C1CCCc2cccnc21)C1(c2ccc(Cl)c(Cl)c2)CCC1 (single isomer, unassigned) [Example 182, (syn)-[1-(3,4-dichlorophenyl)cyclobutyl][5,6,7,8-tetrahydroquinolin-8-yl]-methanol] | <0.01 | > 20 | <0.01 | > 20
11 | OC(C1CCCc2cccnc21)C1(c2ccc(C(F)(F)F)cc2)CCC1 (single isomer, unassigned) [Example 183, (anti)-5,6,7,8-tetrahydroquinolin-8-yl{1-[4-(trifluoromethyl)phenyl]-cyclobutyl}methanol] | <0.01 | 1.4 | <0.01 | 
12 | OC(C1CCCc2cccnc21)C1(c2ccc(C(F)(F)F)cc2)CCC1 (single isomer, unassigned) [Example 184, (syn)-5,6,7,8-tetrahydroquinolin-8-yl{1-[4-(trifluoromethyl)phenyl]-cyclobutyl}methanol] | 0.46 | > 20 | <0.01 | > 20
13 | CC1(O)CC(c2ccc(OC(F)(F)F)cc2)(C(O)c2ccccn2)C1 (single isomer, unassigned) [Example 203] | >85 | 13.8 | 74 | 
14 | CC1(O)CC(c2ccc(C(F)(F)F)cc2)(C(O)c2ccccn2)C1 (single isomer, unassigned) [Example 233] | >85 | 10.8 | 67 | 
15 | O=C1CC(c2cccc(C(F)(F)F)c2)([C@H](O)c2ccccn2)C1 (single isomer, unassigned) [Example 241] | 66 | 1.67 | 59 | 
16 | O=C1CC(c2cccc(C(F)(F)F)c2)([C@@H](O)c2ccccn2)C1 (single isomer, unassigned) [Example 243] | 64 | 18.5 | 55 | 
17 | CC1(O)CC(c2cccc(C(F)(F)F)c2)(C(O)c2ccccn2)C1 (single isomer, unassigned) [Example 244] | 80 | 3.6 | 77 | 
18 | OC1CC(c2ccc(Cl)c(Cl)c2)(C(O)c2ccccn2)C1 (single isomer, unassigned) [Example 247] | 62 | 4.31 | >85 | 
19 | O=C1CC(c2cccc(OC(F)(F)F)c2)([C@H](O)c2ccccn2)C1 (single isomer, unassigned) [Example 256] | 44 | 2.24 | 55 | 
20 | O=C1CC(c2cccc(OC(F)(F)F)c2)([C@@H](O)c2ccccn2)C1 (single isomer, unassigned) [Example 257] | 42 | 9.51 | 57 | 
21 | O=C1CC(c2ccc(F)c(Cl)c2)([C@H](O)c2ccccn2)C1 (single isomer, unassigned) [Example 268] | 66 | 2.13 | 82 | 
22 | OC1CC(c2cccc(OC(F)(F)F)c2)(C(O)c2ccccn2)C1 (single isomer, unassigned) [Example 272] | 54 | 0.19 | 48 | 
23 | OC1CC(c2cccc(OC(F)(F)F)c2)(C(O)c2ccccn2)C1 (single isomer, unassigned) [Example 273] | 42 | 0.09 | 65 | 
24 | CC1(O)CC(c2ccnc(C(F)(F)F)c2)(C(O)c2ccccn2)C1 (single isomer, unassigned) [Example 307] | 73 | 8.23 | >85 | 
25 | CC1(O)CC(c2cncc(C(F)(F)F)c2)(C(O)c2ccccn2)C1 (single isomer, unassigned) [Example 308] | 41 | 1 | 13 | 
26 | OC1CC(c2ccc(Cl)c(Cl)c2)(C(O)c2ncccn2)C1 (single isomer, unassigned) [Example 312] | >85 | 1.96 | >85 | 

— patent US8772499B2, “TRPV3 modulators” (AbbVie Inc., priority 2011, dated 2014)
